Experimental findings from patent US20260297042A1, “BIARYLAMIDE DERIVATIVES AND THEIR USE AS PKMYT1 INHIBITORS” (CANCER RESEARCH TECHNOLOGY LIMITED, priority 2023, published 2026) are described below.

As a reminder, the IC50 is the concentration at which inhibition is half-maximal. A higher IC50 goes with lower potency.

SMILES strings stand for the structures. Where a name gives a salt, the structure may show the parent alone.

One experiment has as its target T1, Human PKMYT1 (Homo sapiens, UniProt Q99640).
T1 construct: Human PKMYT1 75-362 was cloned as a TEV cleavable 6xHis fusion; 6xHis (TEV cleavable) (cleaved yes); made in house; host or cells: bacterial cells
T1 sequence (Q99640 75-362): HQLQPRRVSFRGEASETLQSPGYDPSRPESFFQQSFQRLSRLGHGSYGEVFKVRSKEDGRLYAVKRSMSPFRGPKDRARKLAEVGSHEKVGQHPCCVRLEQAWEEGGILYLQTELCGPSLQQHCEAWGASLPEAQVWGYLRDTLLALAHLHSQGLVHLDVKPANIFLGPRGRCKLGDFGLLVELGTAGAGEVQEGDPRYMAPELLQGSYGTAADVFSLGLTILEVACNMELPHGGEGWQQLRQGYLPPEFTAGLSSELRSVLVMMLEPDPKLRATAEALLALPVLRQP
Briefly: PKMYT1 biochemical ADP-Glo enzymatic assay. Particulars: ADP-Glo. The method in brief:
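IC50 derived from luminescence (ADP-Glo Max) after PKMYT1 kinase domain, 15 nM, turned over 500 µM ATP for 60 min at 26 °C. Buffer contained 10 mM MgCl2, 1 mM EGTA and 0.01% Brij-35 at pH 7.5.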
(In general: ADP-Glo turns the ADP formed in a reaction into a luminescent signal.)

Another experiment deals with T2, WEE1 (Homo sapiens, UniProt P30291).
T2 construct: purchased Thermo Fisher PR7373A
Description: Selectivity versus WEE1 assay (ADP-Glo enzymatic assay). Format: biochemical. Particulars: for IC50: ADP-Glo; for PKMYT1 vs. WEE1 selectivity: fold difference in selectivity for PKMYT1 over WEE1. The method in brief: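 Inhibition is measured as reduced ADP production, detected by luminescence with ADP-Glo, after enzyme (15 nM) and 30 µM ATP react for 60 min at 26° C in 1% DMSO-containing HEPES buffer, pH 7.5. Data are accepted only if replicate IC50s fall within 3-fold and r2 exceeds 0.9.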

Setting [1] is: PKMYT1 kinase domain 15 nM, banded values.
[2] abbreviates: 15 nM PKMYT1 kinase domain, 500 µM ATP, 60 minutes at 26° C., banded.
[3] abbreviates: 15 nM WEE1, 60 minutes at 26° C., banded.
Where [4] appears, read: banded, ">N" = at least in this band but could be higher.

T2 sequence (P30291 whole entry): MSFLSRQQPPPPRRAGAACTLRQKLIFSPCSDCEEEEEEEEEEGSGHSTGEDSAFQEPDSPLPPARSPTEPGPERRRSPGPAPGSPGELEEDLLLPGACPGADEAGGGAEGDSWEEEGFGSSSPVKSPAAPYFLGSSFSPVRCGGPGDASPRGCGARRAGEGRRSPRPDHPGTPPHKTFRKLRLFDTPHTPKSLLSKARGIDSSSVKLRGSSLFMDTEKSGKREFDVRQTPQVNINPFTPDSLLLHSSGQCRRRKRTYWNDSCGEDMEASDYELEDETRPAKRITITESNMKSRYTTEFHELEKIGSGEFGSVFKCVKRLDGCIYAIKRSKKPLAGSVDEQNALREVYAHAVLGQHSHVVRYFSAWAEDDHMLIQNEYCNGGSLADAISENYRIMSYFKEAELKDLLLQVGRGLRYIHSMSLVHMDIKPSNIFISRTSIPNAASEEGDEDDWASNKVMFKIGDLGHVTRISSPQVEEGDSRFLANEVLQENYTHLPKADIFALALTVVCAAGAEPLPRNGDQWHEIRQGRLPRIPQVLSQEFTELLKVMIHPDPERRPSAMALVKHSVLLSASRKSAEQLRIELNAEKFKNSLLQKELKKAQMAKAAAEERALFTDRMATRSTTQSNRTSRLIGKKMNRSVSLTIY

As for `C#Cc1cccc(Nc2ncc(C(=O)Nc3c(C)ccc(O)c3C)s2)n1` [BAA-431, 2-((6-ethynylpyridin-2-yl)amino)-N-(3-hydroxy-2,6-dimethylphenyl)thiazole-5-carboxamide], the IC50 against Human PKMYT1 (setting [1]) is 50 to 1000 nM; at WEE1 (WEE1 15 nM, banded values) it was over 11000 nM. The “PKMYT1 vs. WEE1 selectivity” value at WEE1 (banded) is “X (100-<1000 fold)”.

`CNC(=O)Cn1ccc(Nc2ncc(C(=O)Nc3c(C)ccc(O)c3C)s2)n1` [BAA-141, N-(3-hydroxy-2,6-dimethyl-phenyl)-2-[[1-[2-(methylamino)-2-oxo-ethyl]pyrazol-3-yl]amino]thiazole-5-carboxamide]: the IC50 against Human PKMYT1 (setting [2]) is under 50 nM; on WEE1 (setting [3]), over 11000 nM. In addition, the “PKMYT1 vs. WEE1 selectivity” value on WEE1 (setting [4]) is given as “X (100-<1000 fold)”.

Take `Cc1ccc(C(=O)Nc2ccc(Nc3ncc(C(=O)Nc4c(C)ccc(O)c4C)s3)nc2)c(C)c1` [BAA-297, 2-((5-(2,4-dimethylbenzamido)pyridin-2-yl)amino)-N-(3-hydroxy-2,6-dimethylphenyl)thiazole-5-carboxamide]: the IC50 at Human PKMYT1 (setting [2]) is 50 to 1000 nM; against WEE1 (setting [3]), over 11000 nM. Moreover, the “PKMYT1 vs. WEE1 selectivity” value at WEE1 (setting [4]) is reported as “Y (1000-5000 fold)”.

Turning to `CCOC(=O)c1oc(Nc2ncc(C(=O)Nc3c(C)ccc(O)c3C)s2)nc1C` [BAA-446, ethyl 2-((5-((3-hydroxy-2,6-dimethylphenyl)carbamoyl)thiazol-2-yl)amino)-4-methyloxazole-5-carboxylate], the IC50 was 50 to 1000 nM against Human PKMYT1 (setting [1]) and over 11000 nM on WEE1 (WEE1 15 nM, banded values). For the same compound, the “PKMYT1 vs. WEE1 selectivity” value at WEE1 (banded) is recorded as “X (100-<1000 fold)”.

For `COCCN(CCOC)C(=O)Cn1cc(C)c(Nc2ncc(C(=O)Nc3c(C)ccc(O)c3C)s2)n1` [BAA-542, 2-((1-(2-(bis(2-methoxyethyl)amino)-2-oxoethyl)-4-methyl-1H-pyrazol-3-yl)amino)-N-(3-hydroxy-2,6-dimethyl-phenyl)thiazole-5-carboxamide], the IC50 on Human PKMYT1 (setting [1]) was under 50 nM; on WEE1 (WEE1 15 nM, banded values), over 11000 nM. Also, the “PKMYT1 vs. WEE1 selectivity” value on WEE1 (banded) is listed as “X (100-<1000 fold)”.

As to `Cc1ccc(O)c(C)c1NC(=O)c1cnc(Nc2cc(C)n(CC(=O)N3CCN(C)CC3)n2)s1` [BAA-201], the IC50 was under 50 nM at Human PKMYT1 (setting [2]) and over 11000 nM on WEE1 (setting [3]). Besides, the “PKMYT1 vs. WEE1 selectivity” value at WEE1 (setting [4]) is reported as “X (100-<1000 fold)”.

Turning to `Cc1ccc(O)c(C)c1NC(=O)c1cnc(Nc2ccn([C@@H]3CCN(C(=O)Cc4cccnc4)C3)n2)s1` [BAA-102], the IC50 against Human PKMYT1 (setting [2]) is 50 to 1000 nM; at WEE1 (setting [3]), over 11000 nM. Moreover, on WEE1 (setting [4]), the “PKMYT1 vs. WEE1 selectivity” value is reported as “>Y (1000-5000 fold)”.

Regarding `Cc1ccc(O)c(C)c1NC(=O)c1cnc(Nc2cccc(S(=O)(=O)C(F)(F)F)c2)s1` [BAA-284, N-(3-hydroxy-2,6-dimethylphenyl)-2-((3-((trifluoromethyl)sulfonyl)phenyl)amino) thiazole-5-carboxamide], the IC50 on Human PKMYT1 (setting [2]) is 1000 to 11000 nM; against WEE1 (setting [3]), over 11000 nM. For the same compound, the “PKMYT1 vs. WEE1 selectivity” value at WEE1 (setting [4]) was “W (10-<100 fold)”.

For `Cc1ccc(O)c(C)c1NC(=O)c1cnc(Nc2ccn(CC(=O)N3CC(F)(F)C3)n2)s1` [BAA-196], the results for the IC50 on Human PKMYT1 (setting [2]) and at WEE1 (setting [3]) were under 50 nM and over 11000 nM, respectively. Further, on WEE1 (setting [4]), the “PKMYT1 vs. WEE1 selectivity” value is recorded as “Y (1000-5000 fold)”.

With `Cc1ccc(O)c(C)c1NC(=O)c1cnc(NCc2nccn2C)s1` [BAA-362, N-(3-hydroxy-2,6-dimethylphenyl)-2-(((1-methyl-1H-imidazol-2-yl)methyl)amino)thiazole-5-carboxamide], the IC50 against Human PKMYT1 (setting [2]) is 1000 to 11000 nM; at WEE1 (setting [3]), over 11000 nM. In addition, at WEE1 (setting [4]), the “PKMYT1 vs. WEE1 selectivity” value is “W (10-<100 fold)”.

`Cc1ccc(O)c(C)c1NC(=O)c1cnc(NC2Cc3ccccc3C2)s1` [BAA-353, 2-((2,3-dihydro-1H-inden-2-yl)amino)-N-(3-hydroxy-2,6-dimethylphenyl)thiazole-5-carboxamide]: the figures for the IC50 against Human PKMYT1 (setting [2]) and at WEE1 (setting [3]) were 1000 to 11000 nM and over 11000 nM, respectively. Moreover, the “PKMYT1 vs. WEE1 selectivity” value on WEE1 (setting [4]) is “W (10-<100 fold)”.

In the case of `Cc1ccc(O)c(C)c1NC(=O)c1cnc(Nc2cccc3c2OCCO3)s1` [BAA-529, 2-((2,3-dihydrobenzo[b][1,4]dioxin-5-yl)amino)-N-(3-hydroxy-2,6-dimethylphenyl)thiazole-5-carboxamide. TFA salt], the IC50 is 50 to 1000 nM against Human PKMYT1 (setting [1]) and over 11000 nM against WEE1 (WEE1 15 nM, banded values). Further, the “PKMYT1 vs. WEE1 selectivity” value at WEE1 (banded) was “X (100-<1000 fold)”.

With `Cc1ccc(O)c(C)c1NC(=O)c1cnc(Nc2ncc[nH]2)s1` [BAA-030, N-(3-hydroxy-2,6-dimethyl-phenyl)-2-(1H-imidazol-2-ylamino)thiazole-5-carboxamide], the figures for the IC50 against Human PKMYT1 (setting [2]) and at WEE1 (setting [3]) were 1000 to 11000 nM and over 11000 nM, respectively. The “PKMYT1 vs. WEE1 selectivity” value on WEE1 (setting [4]) is “>W (10-<100 fold)”.

For the compound `Cc1ccc(O)c(C)c1NC(=O)c1cnc(Nc2cnn(CC(=O)N3CCCC3)c2)s1` [BAA-527, N-(3-hydroxy-2,6-dimethylphenyl)-2-((1-(2-oxo-2-(pyrrolidin-1-yl)ethyl)-1H-pyrazol-4-yl)amino)thiazole-5-carboxamide], the IC50 on Human PKMYT1 (setting [1]) is 50 to 1000 nM; on WEE1 (WEE1 15 nM, banded values), over 11000 nM. Also, the “PKMYT1 vs. WEE1 selectivity” value on WEE1 (banded) is recorded as “W (10-<100 fold)”.

On to `COc1cncnc1Nc1ncc(C(=O)Nc2c(C)ccc(O)c2C)s1` [BAA-559, N-(3-hydroxy-2,6-dimethylphenyl)-2-((5-methoxypyrimidin-4-yl)amino)thiazole-5-carboxamide], for which the IC50 at Human PKMYT1 (setting [1]) was under 50 nM; at WEE1 (WEE1 15 nM, banded values) it was 1000 to 11000 nM. In addition, on WEE1 (banded), the “PKMYT1 vs. WEE1 selectivity” value is reported as “X (100-<1000 fold)”.

`Cc1ccc(O)c(C)c1NC(=O)c1cnc(Nc2ccnc(-c3ccc(F)cc3)c2)s1` [BAA-304, 2-((2-(4-fluorophenyl)pyridin-4-yl)amino)-N-(3-hydroxy-2,6-dimethylphenyl)thiazole-5-carboxamide]: the IC50 is 50 to 1000 nM on Human PKMYT1 (setting [2]) and over 11000 nM at WEE1 (setting [3]). Further, the “PKMYT1 vs. WEE1 selectivity” value on WEE1 (setting [4]) is “X (100-<1000 fold)”.

Turning to `Cc1ccc(O)c(C)c1NC(=O)c1cnc(Nc2ccn(CC(=O)N3CCN(C(=O)OC(C)(C)C)CC3)n2)s1` [BAA-140, tert-butyl 4-[2-[3-[5-[(3-hydroxy-2,6-dimethyl-phenyl)carbamoyl]thiazol-2-ylamino]pyrazol-1-yl]acetyl]piperazine-1-carboxylate], the IC50 at Human PKMYT1 (setting [2]) is under 50 nM; at WEE1 (setting [3]), over 11000 nM. Moreover, on WEE1 (setting [4]), the “PKMYT1 vs. WEE1 selectivity” value is reported as “Y (1000-5000 fold)”.

On to `Cc1ccc(O)c(C)c1NC(=O)c1cnc(NCc2cn[nH]c2)s1` [BAA-360, 2-(((1H-pyrazol-4-yl)methyl)amino)-N-(3-hydroxy-2,6-dimethylphenyl) thiazole-5-carboxamide], for which the values for the IC50 at Human PKMYT1 (setting [2]) and against WEE1 (setting [3]) were under 50 nM and over 11000 nM, respectively. For the same compound, the “PKMYT1 vs. WEE1 selectivity” value on WEE1 (setting [4]) is reported as “Y (1000-5000 fold)”.

`Cc1ccc(O)c(C)c1NC(=O)c1cnc(Nc2cccc3ncsc23)s1` [BAA-485, 2-(benzo[d]thiazol-7-ylamino)-N-(3-hydroxy-2,6-dimethylphenyl)thiazole-5-carboxamide]: the IC50 was under 50 nM on Human PKMYT1 (setting [1]) and over 11000 nM at WEE1 (WEE1 15 nM, banded values). Also, the “PKMYT1 vs. WEE1 selectivity” value on WEE1 (banded) is on record as “X (100-<1000 fold)”.

On to `Cc1ccc(O)c(C)c1NC(=O)c1cnc(Nc2nc(CO)cs2)s1` [BAA-018], for which the IC50 against Human PKMYT1 (setting [2]) is under 50 nM; against WEE1 (setting [3]), over 11000 nM. Moreover, the “PKMYT1 vs. WEE1 selectivity” value at WEE1 (setting [4]) is reported as “X (100-<1000 fold)”.

With `Cc1ccc(O)c(C)c1NC(=O)c1cnc(Nc2ccn([C@@H]3CCN(C(=O)OC(C)(C)C)C3)n2)s1` [BAA-043, tert-Butyl(3R)-3-[3-[[5-[(3-hydroxy-2.6-dimethyl-phenyl)carbamoyl]thiazol-2-yl]amino]pyrazol-1-yl]pyrrolidine-1-carboxylate], the IC50 on Human PKMYT1 (setting [2]) is 50 to 1000 nM; against WEE1 (setting [3]) it was over 11000 nM. The “PKMYT1 vs. WEE1 selectivity” value on WEE1 (setting [4]) was “>Y (1000-5000 fold)”.

For the compound `CCC(C(=O)N(C)C)n1ccc(Nc2ncc(C(=O)Nc3c(C)ccc(O)c3C)s2)n1` (centres unmarked) [BAA-507, 2-((1-(1-(dimethylamino)-1-oxobutan-2-yl)-1H-pyrazol-3-yl)amino)-N-(3-hydroxy-2,6-dimethylphenyl)thiazole-5-carboxamide], the IC50 against Human PKMYT1 (setting [1]) was under 50 nM; against WEE1 (WEE1 15 nM, banded values) it was over 11000 nM. The “PKMYT1 vs. WEE1 selectivity” value on WEE1 (banded) is “X (100-<1000 fold)”.

With `Cc1ccc(O)c(C)c1NC(=O)c1cnc(Nc2ccn([C@@H]3CCN(C(=O)c4ccccc4)C3)n2)s1` [BAA-087], the values for the IC50 at Human PKMYT1 (setting [2]) and at WEE1 (setting [3]) were 50 to 1000 nM and over 11000 nM, respectively.

`Cc1ccc(O)c(C)c1NC(=O)c1cnc(NCc2ccccn2)s1` [BAA-349, N-(3-hydroxy-2,6-dimethylphenyl)-2-((pyridin-2-ylmethyl)amino) thiazole-5-carboxamide]: the IC50 on Human PKMYT1 (setting [2]) is 50 to 1000 nM; against WEE1 (setting [3]), over 11000 nM. The “PKMYT1 vs. WEE1 selectivity” value on WEE1 (setting [4]) is “X (100-<1000 fold)”.
